# Where “and” joins values, the source holds several entries; their conditions need not be identical. Identical values can stand only once. Like-named read-outs stand apart in the source and are kept apart here.
# Tests used:
# [1] = Mouse PK, combined (cassette) dosing of BGAz-001–005; format: in vivo, KM mice; design: AUMC(0-t) / VRT(0-t) / λz: unit not given here; conditions: for MRT last: read-out: MRT(0-t); for MRT inf: read-out: MRT(0-∞); for Vd/F: read-out: Vz/F
# Source text: Methods for combined single dosing (BGAz001–005) and dosing of single compounds multiple times (BGAz004 and BGAz005) are described in detail in the Supporting Information (PK Data).
# Report on PK Results of Combined Dosing with BGAz-001–005
# 1 Materials and instrument combined dosing
# An MS2 Turnover type oscillator was purchased from IKA Work’s Guangzhou (China), and a 5415R ChromatographicanalyseswereconductedusinganAgilent1290InfinityIIhighperformanceliquidchromatography andAgilentTechnologies6470TripleQuadLC/MS.Propranolol(≥90%inpurity,internalstandard,IS)waspurchased fromtheSigmaChemicalCo.(China).Formicacid(HPLCgrade)andmethanol(HPLCgrade)werepurchasedfrom DIKMACo.(China).Allchemicalsandsolventswereanalyticalgrade.WaterwaspurifiedusingaMillipore(AK,USA) laboratoryultra-purewatersystem(0.2μmfilter).
# KMmice,weighing25–35g(BeijingVitalRiverLaboratoryAnimalTechnologyCo.,Ltd.,China)wereutilisedforthe studies.The protocols were approved by the Animal Care and Use Committee, GIBH. Animals were maintained on standard animal chow and waterad libitum, in a climate-controlled room (23±1 °C 30–70% relative humidity, a minimumof tenexchangesof roomairperhouranda12hlight/darkcycle)foroneweekpriortoexperiments.
# 3 Pharmacokinetic studies
# Compounds BGAz-001 ，BGAz-002 ，BGAz-003 ，BGAz-004 and BGAz-005 were dissolved mixed in a solution containing DMSO (2%),ethanol (4%), Cremophor EL (4%) and ddH2O (90%); Pharmacokinetic propertiesof KM (male) were determined following IV, PO and IP administration. Animals were randomly distributed into three experimentalgroups(n=4).ThePOgroupwasgivenmixedsolutionwith5mg/kgbygastricgavage.TheIVgroup was dosed with mixed solution 1mg/kg byinjection into the tail vein. The IP group was dosed with mixed solution 1mg/kg by intraperitoneal injection. After single administration, whole blood samples (100 μL) were obtained from the orbital venousplexus atthe followingtime pointsafter dosing:5, 15,30 minand 1,3, 5,8, 24hour (PO and IP groups) and at the following time points after dosing 2, 10, 30min and 1, 3, 5, 8,24 hour (IV group). Wholeblood samples were collected in heparinised tubes. The plasma fraction was immediately separated by centrifugation. The micewerehumanelyeuthanasiabycarbondioxide24hoursafterexperimentwithoutpain.
# 4 Plasma sample and brain sample analysis
# 4.1 Standard curve sample preparation
# ThecompoundsweredissolvedinDMSO(2mg/mL)anddilutedwithtoseriesconcentration(methanol:H 2O,1:1,10 μL) and blank plasma (50 μL) were added to 1.5 mL tubes and vortexed for 3 min, then acetonitrile-containing internalstandard(150μL)wasaddedandvortexedforafurther5min,andsubsequentlyspuninacentrifugeat13000 […]
# 4.2 Plasma and preparation
# Plasmasampleswerepreparedusingaproteinprecipitationmethod.Solution(10μL,methanolH 2O,1:1)andplasma samples(50μL)wereaddedto1.5mLtubesandvortexfor3min,thenacetonitrile-containinginternalstandard(150 μL)wasaddedandvortexfor5min,andsubsequentlyspuninacentrifugeat13000× gfor40minat4°C.
# Aftercentrifugation,supernatant(100μL)wastransferto96wellplatesandanalysedbyLC-MS/MSusinganAgilent 1290InfinityIIHPLCandanAgilentTechnologies6470TripleQuadLC/MS.
# M. bovis BCG = assay: microbe, parasite or virus in culture; format: cell-based; conditions: Mycobacterium tuberculosis variant bovis BCG, read-out: BCG MBC
# [2] = IP 1 mg/kg, cassette, mean of animals
# [3] = IV 1 mg/kg, cassette, mean of animals
# [4] = PO 5 mg/kg, cassette, mean of animals
# [5] = male, KM, mouse, plasma, IP 1 mg/kg, cassette
# [6] = male, KM, mouse, plasma, IP 1 mg/kg, cassette, mean of animals
# [7] = male, KM, mouse, plasma, IV 1 mg/kg, cassette
# [8] = male, KM, mouse, plasma, IV 1 mg/kg, cassette, mean of animals
# [9] = male, KM, mouse, plasma, PO 5 mg/kg, cassette
# [10] = male, KM, mouse, plasma, PO 5 mg/kg, cassette, mean of animals
structure (smiles),measurement,setting,value
FC(F)(F)Oc1ccc(C2CC(CN3CCCC3)N2Cc2ccccc2OC(F)(F)F)cc1 (stereo not shown) [BGAz-002],AUC(0-t),[1]; [2],390.877 µg
same,AUC(0-∞),[1]; [2],629.982 µg
same,AUMC(0-t),[1]; [2],3917.162 **μg
same,AUMC(0-∞),[1]; [2],17064.651 **μg
same,CLz/F,[1]; [2],1.79 L/kg
same,C_last,[1]; [2],8.556 µg
same,R_AUC(t/∞),[1]; [2],67.725%
same,VRT(0-t),[1]; [2],72.869 ^2
same,VRT(0-∞),[1]; [2],649.236 ^2
same,λz,[1]; [2],0.051 1/
same,AUC(0-∞),"[1]; IP 1 mg/kg, cassette, summary table",629.982 µg·h
same,AUC(0-t),[1]; [3],395.775 µg
same,AUC(0-∞),[1]; [3],440.39 µg
same,AUMC(0-t),[1]; [3],2604.325 **μg
same,AUMC(0-∞),[1]; [3],4336.305 **μg
same,CLz/F,[1]; [3],2.306 L/kg
same,C_last,[1]; [3],3.185 µg
same,R_AUC(t/∞),[1]; [3],89.5%
same,VRT(0-t),[1]; [3],48.868 ^2
same,VRT(0-∞),[1]; [3],164.25 ^2
same,Vz/F,[1]; [3],28.224 L/kg
same,λz,[1]; [3],0.099 1/
same,AUC(0-∞),"[1]; IV 1 mg/kg, cassette, summary table",440.39 µg·h
same,BA,"[1]; PO 5 mg/kg vs IV 1 mg/kg, cassette",57.59%
same,AUC(0-t),[1]; [4],642.368 µg
same,AUC(0-∞),[1]; [4],1268.031 µg
same,AUMC(0-t),[1]; [4],6099.109 **μg
same,AUMC(0-∞),[1]; [4],48726.538 **μg
same,CLz/F,[1]; [4],11.484 L/kg
same,C_last,[1]; [4],17.369 µg
same,R_AUC(t/∞),[1]; [4],64%
same,VRT(0-t),[1]; [4],48.138 ^2
same,VRT(0-∞),[1]; [4],1193.792 ^2
same,λz,[1]; [4],0.025 1/
same,AUC(0-∞),"[1]; PO 5 mg/kg, cassette, summary table",1268.03 µg·h
same,Cmax,"[1]; male, KM, mouse, plasma, ip, 1 mg/kg, IP 1 mg/kg, cassette, mean of animals, read-out: Cmax",40 ng/mL
same,Tmax,"[1]; male, KM, mouse, plasma, ip, 1 mg/kg, IP 1 mg/kg, cassette, mean of animals, read-out: Tmax",0.167 h
same,Cmax,"[1]; male, KM, mouse, plasma, ip, 1 mg/kg, IP 1 mg/kg, cassette, summary table, read-out: Cmax",40 ng/mL
same,half-life,"[1]; male, KM, mouse, plasma, ip, 1 mg/kg, IP 1 mg/kg, cassette, summary table, read-out: T1/2 (converted)",16.1 h
same,Tmax,"[1]; male, KM, mouse, plasma, ip, 1 mg/kg, IP 1 mg/kg, cassette, summary table, read-out: Tmax",0.167 h
same,Cmax,"[1]; male, KM, mouse, plasma, iv, 1 mg/kg, IV 1 mg/kg, cassette, mean of animals, read-out: Cmax",189 ng/mL
same,Tmax,"[1]; male, KM, mouse, plasma, iv, 1 mg/kg, IV 1 mg/kg, cassette, mean of animals, read-out: Tmax",0.033 h
same,Cmax,"[1]; male, KM, mouse, plasma, iv, 1 mg/kg, IV 1 mg/kg, cassette, summary table, read-out: Cmax",189 ng/mL
same,half-life,"[1]; male, KM, mouse, plasma, iv, 1 mg/kg, IV 1 mg/kg, cassette, summary table, read-out: T1/2 (converted)",8.35 h
same,Tmax,"[1]; male, KM, mouse, plasma, iv, 1 mg/kg, IV 1 mg/kg, cassette, summary table, read-out: Tmax",0.033 h
same,AUC(0-inf),"[1]; male, KM, mouse, plasma, po, 5 mg/kg, 5 mg/kg PO, cassette dosing, read-out: AUC0-inf",1270 ng·h/mL
same,Cmax,"[1]; male, KM, mouse, plasma, po, 5 mg/kg, 5 mg/kg PO, cassette dosing, read-out: Cmax (Mouse, P.O.)",53.9 ng/mL
same,half-life,"[1]; male, KM, mouse, plasma, po, 5 mg/kg, 5 mg/kg PO, cassette dosing, read-out: T1/2 (Mouse, P.O.) (converted)",24.9 h
same,Tmax,"[1]; male, KM, mouse, plasma, po, 5 mg/kg, 5 mg/kg PO, cassette dosing, read-out: Tmax (Mouse, P.O.)",1.87 h
same,Cmax,"[1]; male, KM, mouse, plasma, po, 5 mg/kg, PO 5 mg/kg, cassette, mean of animals, read-out: Cmax",53.9 ng/mL
same,Tmax,"[1]; male, KM, mouse, plasma, po, 5 mg/kg, PO 5 mg/kg, cassette, mean of animals, read-out: Tmax",1.88 h
same,Cmax,"[1]; male, KM, mouse, plasma, po, 5 mg/kg, PO 5 mg/kg, cassette, summary table, read-out: Cmax",53.9 ng/mL
same,half-life,"[1]; male, KM, mouse, plasma, po, 5 mg/kg, PO 5 mg/kg, cassette, summary table, read-out: T1/2 (converted)",24.9 h
same,Tmax,"[1]; male, KM, mouse, plasma, po, 5 mg/kg, PO 5 mg/kg, cassette, summary table, read-out: Tmax",1.88 h
same,concentration at 0.083 h,[1]; [5],37.4 ng/mL and 80 nM
same,concentration at 0.25 h,[1]; [5],80 nM and 38.8 ng/mL
same,concentration at 0.5 h,[1]; [5],70 nM and 32.6 ng/mL
same,concentration at 1 h,[1]; [5],50 nM and 25.8 ng/mL
same,concentration at 3 h,[1]; [5],50 nM and 24 ng/mL
same,concentration at 5 h,[1]; [5],40 nM and 17 ng/mL
same,concentration at 8 h,[1]; [5],30 nM and 15 ng/mL
same,concentration at 24 h,[1]; [5],30 nM and 12.4 ng/mL
same,MRT last,[1]; [6],10.1 h
same,MRT inf,[1]; [6],23.7 h
same,Vd/F,[1]; [6],36.8 L/kg
same,concentration at 0.033 h,"[1]; male, KM, mouse, plasma, IV 1 mg/kg, cassette, 0.033 h",189 ng/mL and 400 nM
same,concentration at 0.167 h,"[1]; male, KM, mouse, plasma, IV 1 mg/kg, cassette, 0.167 h",210 nM and 98.9 ng/mL
same,concentration at 0.5 h,[1]; [7],130 nM and 62.5 ng/mL
same,concentration at 1 h,[1]; [7],100 nM and 45.6 ng/mL
same,concentration at 3 h,[1]; [7],60 nM and 28.3 ng/mL
same,concentration at 5 h,[1]; [7],40 nM and 18.3 ng/mL
same,concentration at 8 h,[1]; [7],30 nM and 12.5 ng/mL
same,concentration at 24 h,[1]; [7],10 nM and 6.16 ng/mL
same,C0,[1]; [8],222 ng/mL
same,MRT last,[1]; [8],6.46 h
same,MRT inf,[1]; [8],9.9 h
same,concentration at 0.083 h,[1]; [9],16.4 ng/mL and 30 nM
same,concentration at 0.25 h,[1]; [9],50 nM and 25.1 ng/mL
same,concentration at 0.5 h,[1]; [9],80 nM and 37.7 ng/mL
same,concentration at 1 h,[1]; [9],100 nM and 49.3 ng/mL
same,concentration at 3 h,[1]; [9],100 nM and 49.4 ng/mL
same,concentration at 5 h,[1]; [9],80 nM and 40.1 ng/mL
same,concentration at 8 h,[1]; [9],80 nM and 36.7 ng/mL
same,concentration at 24 h,[1]; [9],50 nM and 22.9 ng/mL
same,MRT last,[1]; [10],7.92 h
same,MRT inf,[1]; [10],27.5 h
same,Vd/F,[1]; [10],104 L/kg
same,MBC,M. bovis BCG,12 to 25 µM

# Reference: publication PMC10895678 (Journal of Medicinal Chemistry, 2024)
